Experimental data: PubChem BioAssay (NCI)
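Test compounds were applied to cells in 96-well plates for 48 hours at 5 doses. GI50 = concentration required for 50% inhibition of growth. TGI marks complete inhibition of growth.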

What was measured:
Experiment in all cases: DTP human tumour cell line panel, 48 h
SNB-75 CNS = test system: SNB-75 CNS
786-0 renal = test system: 786-0 renal
HCT-15 colon = test system: HCT-15 colon
OVCAR-5 ovarian = test system: OVCAR-5 ovarian
COLO 205 colon = test system: COLO 205 colon
K-562 leukemia = test system: K-562 leukemia
NCI-H23 lung = test system: NCI-H23 lung
OVCAR-8 ovarian = test system: OVCAR-8 ovarian
IGROV1 ovarian = test system: IGROV1 ovarian
RXF 393 renal = test system: RXF 393 renal

In the case of `CCCc1[nH]nc(CCC(=O)N(Cc2ccccc2)Cc2ccccc2)c1CC`, the TGI (SNB-75 CNS) is reported as greater than 100 µM, the TGI (786-0 renal) is reported as greater than 100 µM and the TGI (HCT-15 colon) is reported as greater than 100 µM. For the same molecule, the TGI (OVCAR-5 ovarian) was greater than 100 µM, the TGI (COLO 205 colon) was greater than 100 µM and the TGI (K-562 leukemia) was greater than 100 µM. The TGI (NCI-H23 lung) was greater than 100 µM, the TGI (OVCAR-8 ovarian) was greater than 100 µM and the TGI (IGROV1 ovarian) was greater than 100 µM. For the same molecule, the TGI (RXF 393 renal) was greater than 100 µM.

In the case of `CC(C)(C)C[C@H]1NC(C(=O)NCC[C@H](O)CO)[C@H](c2cccc(Cl)c2)[C@@]12C(=O)Nc1cc(Cl)c(F)cc12` (stereo not given in full), the GI50 (SNB-75 CNS) is reported as 14.1 µM, the TGI (SNB-75 CNS) is reported as 29.9 µM and the GI50 (786-0 renal) is reported as 17 µM. For the same molecule, the TGI (786-0 renal) was 33.8 µM, the GI50 (HCT-15 colon) was 17.8 µM and the TGI (HCT-15 colon) was 37.5 µM. It also gave a GI50 (OVCAR-5 ovarian) of 15.5 µM, a TGI (OVCAR-5 ovarian) of 31.8 µM and a GI50 (COLO 205 colon) of 16.1 µM. The TGI (COLO 205 colon) was 30.7 µM, the GI50 (K-562 leukemia) was 14.8 µM and the TGI (K-562 leukemia) was 43.6 µM. The GI50 (NCI-H23 lung) was 18.7 µM, the TGI (NCI-H23 lung) was 41.6 µM and the GI50 (OVCAR-8 ovarian) was 18.6 µM. For the same molecule, the TGI (OVCAR-8 ovarian) was 39.1 µM, the GI50 (IGROV1 ovarian) was 4.08 µM and the TGI (IGROV1 ovarian) was 21.1 µM. For the same molecule, the GI50 (RXF 393 renal) was 13.7 µM and the TGI (RXF 393 renal) was 27.1 µM.

Molecule `C=CCc1c2c(c(OC)c3ccoc13)C(=O)/C(=C/c1ccccc1OC)O2` has a GI50 (SNB-75 CNS) of 1.44 µM, a TGI (SNB-75 CNS) of 4.91 µM and a GI50 (786-0 renal) of 6.28 µM. The TGI (786-0 renal) was greater than 100 µM, the GI50 (HCT-15 colon) was 3.6 µM and the TGI (HCT-15 colon) was greater than 100 µM. The GI50 (OVCAR-5 ovarian) was 3.57 µM, the TGI (OVCAR-5 ovarian) was greater than 100 µM and the GI50 (COLO 205 colon) was 7.64 µM. The TGI (COLO 205 colon) was 69.5 µM, the GI50 (K-562 leukemia) was 3.51 µM and the TGI (K-562 leukemia) was greater than 100 µM. It also gave a GI50 (NCI-H23 lung) of 2.88 µM, a TGI (NCI-H23 lung) of 14.7 µM and a GI50 (OVCAR-8 ovarian) of 3.87 µM. It also gave a TGI (OVCAR-8 ovarian) greater than 100 µM, a GI50 (IGROV1 ovarian) of 5.27 µM and a TGI (IGROV1 ovarian) greater than 100 µM. It also gave a GI50 (RXF 393 renal) of 2.47 µM and a TGI (RXF 393 renal) of 6.92 µM.

Work on `ClCCn1c(CCl)nc2ccc(Cl)cc21` yielded a GI50 (SNB-75 CNS) of 1.14 µM, a TGI (SNB-75 CNS) of 2.41 µM and a GI50 (786-0 renal) of 1.32 µM. It also gave a TGI (786-0 renal) of 2.94 µM, a GI50 (HCT-15 colon) of 0.392 µM and a TGI (HCT-15 colon) of 2.23 µM. It also gave a GI50 (OVCAR-5 ovarian) of 1.21 µM, a TGI (OVCAR-5 ovarian) of 2.77 µM and a GI50 (COLO 205 colon) of 1.55 µM. The TGI (COLO 205 colon) was 3.07 µM, the GI50 (K-562 leukemia) was 0.34 µM and the TGI (K-562 leukemia) was 1.03 µM. For the same molecule, the GI50 (NCI-H23 lung) was 0.252 µM, the TGI (NCI-H23 lung) was 0.832 µM and the GI50 (OVCAR-8 ovarian) was 0.338 µM. The TGI (OVCAR-8 ovarian) was 1.6 µM, the GI50 (IGROV1 ovarian) was 0.213 µM and the TGI (IGROV1 ovarian) was 0.476 µM. The GI50 (RXF 393 renal) was 0.379 µM and the TGI (RXF 393 renal) was 1.34 µM.
